Measurements published in EP4624497A1, “PHOSPHOEN[…] PROBE, PREPARATION METHOD THEREFOR AND APPLICATION THEREOF” (priority 2022, dated 2024).

Key:
Experiment in all cases: phosphoenolpyruvate titration of purified optical probe (fluorescence ratio)
Assay type in all cases: binding
Conditions in all cases: phosphoenolpyruvate 0 to 10 mM, purified probe treated 10 minutes, ex 420/485 nm, em 528 nm
[1] = molecular target: T1, Thermus thermophilus TtPFK optical probe 254/255-TtPFK-cpYFP variant, TtPFK V54K/I253K/Q254L/R255L/G256F, cpYFP Y1S (Thermus thermophilus, UniProt P21777, form not given/G256F/I253K/Q254L/R255L/V54K)
T1 construct: the numbering corresponds to the full length of the phosphoenolpyruvate-sensitive polypeptide; His-tag; made in house; host or cells: E. coli BL21 (DE3)
Experimental: (§1) • 1. The expression vectors (for example, a phosphoenolpyruvate optical probe expression vector based on pCDF.) were transformed into BL21 (DE3) cells, incubated inverted overnight, and the clones were picked from the plates into 250 mL Erlenmeyer flasks, placed in a shaker at 37 °C and incubated at 220 rpm to OD=0.4-0.8, then 1/1000 (V/V) of IPTG (1 M) was added to induce expression at 18 °C for 24-36 hours. • 2. Upon completion of inducible expression, cells were harvested by centrifugation at 4000 rpm for 30 min, resuspended in 50 mM phosphate buffer and disrupted ultrasonically until the broth were clear, centrifuged at 9600 rpm at 4 °C for 20 min. • 3. The centrifuged supernatant was used to obtain protein by purification through a self-packed nickel column affinity chromatography column, and the protein obtained after nickel column affinity chromatography was further used to obtain protein dissolved in 100 mM HEPES buffer (pH 7.4). • 4. After purified proteins were subjected to SDS-PAGE, probes were diluted to a protein solution having a final concentration of 0.2-5 µM using assay buffer (100 mm HEPES, 100 mM NaCl, pH 7.4). Phosphoenolpyruvate was formulated as a stock solution at a final concentration of 50 mM with the assay buffer (100 mM HEPES, 100 mM NaCl, pH 7.4). • 5. 100 µl 1 µM of protein solution was taken, incubated at 37 °C for 10 min, phosphoenolpyruvate was added for titration, and the fluorescence intensity of 528 nm emission after 420 nm and 485 nm fluorescence excitation of the protein was measured. The fluorescence excitation and emission determination of the samples were done using a multifunctional fluorescence microplate reader. • 6. 100 µl 1 µM of protein solution was taken, incubated at 37 °C for 10 min, and phosphoenolpyruvate was added to determine the absorption and fluorescence spectra of the proteins. Determination of the absorption and fluorescence spectra of the samples was done by spectrophotometer and spectrofluorometer.
(§2) For the 254/255-TtPFK-cpYFP obtained in Example 2 and the 254/255-TtPFK-I253G/Q254L/R255L/G256F-cpYFP-Y1P, 254/255-TtPFK-I253K/Q254L/R255L/G256F-cpYFP-Y1S and 254/256-TtPFK-I253Q/Q254L/G256V/G257L-cpYFP-Y1T/N246F optical probes obtained in Example 6, amino acid were mutated at positions R21, R25, V54, R55, V57, A58, N59, I60, I61, R155, G186, R212, G213, K214, K215, S216 and L320 in the phosphoenolpyruvate binding pocket, and at positions R72, R163, R172 and R246 in the ATP binding pocket to adjust the affinity of the phosphoenolpyruvate optical probe to phosphoenolpyruvate and the substrate specificity. The probes were linearized by reverse PCR, and the sequences of the mutation sites were introduced into the primers. The obtained PCR products were subjected to homologous recombination to obtain plasmids containing the above site mutations. The mutant plasmids were transformed into BL21 (DE3) for induced expression, and the mutant probe proteins were purified for the phosphoenolpyruvate response test. The detection signal of the fusion fluorescent protein containing 2 mM phosphoenolpyruvate was divided by the detection signal of the fusion fluorescent protein without phosphoenolpyruvate. […]

[2] = molecular target: T2, Thermus thermophilus TtPFK optical probe 254/255-TtPFK-cpYFP variant, TtPFK V54Q/I253G/Q254L/R255L/G256F, cpYFP Y1P (Thermus thermophilus, UniProt P21777, form not given/G256F/I253G/Q254L/R255L/V54Q)
T2 construct: the numbering corresponds to the full length of the phosphoenolpyruvate-sensitive polypeptide; His-tag; made in house; host or cells: E. coli BL21 (DE3)
Experimental: as §1, §2

[3] = molecular target: T3, Thermus thermophilus TtPFK optical probe 254/256-TtPFK-cpYFP variant, TtPFK K215E/I253Q/Q254L/G256V/G257L, cpYFP Y1T/N246F (Thermus thermophilus, UniProt P21777, form not given/G256V/G257L/I253Q/K215E/Q254L)
T3 construct: the numbering corresponds to the full length of the phosphoenolpyruvate-sensitive polypeptide; His-tag; made in house; host or cells: E. coli BL21 (DE3), pCDF vector
Experimental: as §1, §2

[4] = molecular target: T4, Thermus thermophilus TtPFK optical probe 254/255-TtPFK-cpYFP variant, TtPFK V54K/I253G/Q254L/R255L/G256F, cpYFP Y1P (Thermus thermophilus, UniProt P21777, form not given/G256F/I253G/Q254L/R255L/V54K)
T4 construct: the numbering corresponds to the full length of the phosphoenolpyruvate-sensitive polypeptide; His-tag; made in house; host or cells: E. coli BL21 (DE3)
Experimental: as §1, §2

[5] = molecular target: T5, Thermus thermophilus TtPFK optical probe 254/256-TtPFK-cpYFP variant, TtPFK S216Y/I253Q/Q254L/G256V/G257L, cpYFP Y1T/N246F (Thermus thermophilus, UniProt P21777, form not given/G256V/G257L/I253Q/Q254L/S216Y)
T5 construct: His-tag; made in house; host or cells: E. coli BL21 (DE3), pCDF vector
Experimental: as §1, §2

[6] = molecular target: T6, Thermus thermophilus TtPFK optical probe 254/255-TtPFK-cpYFP variant, TtPFK I253V/Q254L/R255L/G256H, cpYFP Y1S (Thermus thermophilus, UniProt P21777, form not given/G256H/I253V/Q254L/R255L)
T6 construct: the numbering corresponds to the full length of the phosphoenolpyruvate-sensitive polypeptide; His-tag; made in house; host or cells: E. coli BL21 (DE3)
Experimental: as §1
(§3) The recombinant plasmids of the mutation library were transformed into BL21 (DE3) to induce expression, and the purified probe protein was subjected to phosphoenolpyruvate-responsive screening, dividing the detection signal of the fusion fluorescent protein containing 2 mM phosphoenolpyruvate by that of the fusion fluorescent protein without phosphoenolpyruvate. […]

[7] = molecular target: T7, Thermus thermophilus TtPFK optical probe 254/255-TtPFK-cpYFP variant, TtPFK I253F/Q254L/R255L/G256F, cpYFP Y1G/N246F (Thermus thermophilus, UniProt P21777, form not given/G256F/I253F/Q254L/R255L)
T7 construct: the numbering corresponds to the full length of the phosphoenolpyruvate-sensitive polypeptide; His-tag; made in house; host or cells: E. coli BL21 (DE3)
Experimental: as §1, §3

[8] = molecular target: T8, Thermus thermophilus phosphofructokinase TtPFK (SEQ ID NO: 1) optical probe 254/256-TtPFK-cpYFP, no mutation (Thermus thermophilus, UniProt P21777, form not given/R255N)
T8 construct: the numbering corresponds to the full length of the phosphoenolpyruvate-sensitive polypeptide; His-tag; made in house; host or cells: E. coli BL21 (DE3)
Experimental: as §1, §3

With C=C(OP(=O)(O)O)C(=O)O [phosphoenolpyruvate, Phosphoenolpyruvate] the Kd [1] was 129 µM, the Kd [2] was 769 µM and the Kd [3] was 249 µM. It also gave a Kd [4] of 267 µM, a Kd [5] of 2.36 µM and a Kd [6] of 5.64 µM. The Kd [7] was 5.56 µM and the Kd [8] was 2.15 µM.
